This note sets out measurements from ChEMBL document CHEMBL1131993, “Binding affinities of 3-(3-phenylisoxazol-5-yl)methylidene-1-azabicycles to acetylcholine receptors” (Bioorg Med Chem Lett, 1999).

The target in assay [1] is T1, Muscarinic acetylcholine receptor M1 (Homo sapiens) (UniProt P11229).
T1 sequence (whole entry): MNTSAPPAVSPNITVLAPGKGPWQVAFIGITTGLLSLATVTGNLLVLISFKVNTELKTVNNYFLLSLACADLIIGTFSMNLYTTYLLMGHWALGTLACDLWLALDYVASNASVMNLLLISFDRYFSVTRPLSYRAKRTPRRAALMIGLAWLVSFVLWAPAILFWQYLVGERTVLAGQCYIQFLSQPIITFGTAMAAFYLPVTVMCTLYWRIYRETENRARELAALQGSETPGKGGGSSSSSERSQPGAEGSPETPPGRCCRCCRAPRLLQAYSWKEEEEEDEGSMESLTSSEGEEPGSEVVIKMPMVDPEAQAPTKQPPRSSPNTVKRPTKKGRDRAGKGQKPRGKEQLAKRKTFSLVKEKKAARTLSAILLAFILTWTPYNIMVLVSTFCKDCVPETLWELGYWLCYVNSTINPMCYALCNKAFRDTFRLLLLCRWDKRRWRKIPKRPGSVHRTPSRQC
As to the kind of experiment: Ability to displace [3H]N-methylscopolamine binding to M1 human recombinant muscarinic receptor in CHO cells at concentration 1 uM. The class given is cell-based.

In assay [2] the target is T2, Muscarinic acetylcholine receptor M1 (Homo sapiens, UniProt P11229).
T2 sequence (P11229 whole entry): T1 sequence (whole entry)
As to the kind of experiment: The compound was tested for its binding affinity against M1 human recombinant muscarinic receptor in CHO cells. In kind it is cell-based.

Assay [3] addresses Muscarinic acetylcholine receptor M3 (Homo sapiens) (UniProt P20309). As to the kind of experiment: Ability to displace [3H]N-methylscopolamine binding to M3 human recombinant muscarinic receptor in CHO cells at concentration 1 uM. The class given is cell-based.
Assay [4] has as its target T3, Muscarinic acetylcholine receptor M2 (Homo sapiens) (UniProt P08172).
T3 sequence (whole entry): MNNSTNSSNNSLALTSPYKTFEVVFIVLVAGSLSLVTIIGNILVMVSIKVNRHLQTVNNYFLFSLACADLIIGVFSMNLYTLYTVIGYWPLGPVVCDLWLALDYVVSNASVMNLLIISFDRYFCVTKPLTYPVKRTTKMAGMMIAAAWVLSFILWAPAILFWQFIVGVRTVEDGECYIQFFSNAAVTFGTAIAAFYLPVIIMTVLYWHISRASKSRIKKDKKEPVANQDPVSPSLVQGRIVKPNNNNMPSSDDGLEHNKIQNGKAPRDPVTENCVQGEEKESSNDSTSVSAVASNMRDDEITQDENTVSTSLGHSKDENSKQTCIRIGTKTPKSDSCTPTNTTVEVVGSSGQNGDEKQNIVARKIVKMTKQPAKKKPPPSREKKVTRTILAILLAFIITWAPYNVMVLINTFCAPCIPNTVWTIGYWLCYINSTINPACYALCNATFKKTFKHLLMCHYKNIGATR
As to the kind of experiment: Ability to displace [3H]N-methylscopolamine binding to M2 human recombinant muscarinic receptor in CHO cells at concentration 10 uM. In kind it is cell-based.

Assay [5] addresses Muscarinic acetylcholine receptor M3 (Homo sapiens) (UniProt P20309). As to the kind of experiment: Ability to displace [3H]N-methylscopolamine binding to M3 human recombinant muscarinic receptor in CHO cells at concentration 10 uM. The class given is cell-based.
Assay [6] addresses T1, Muscarinic acetylcholine receptor M1 (Homo sapiens). As to the kind of experiment: Ability to displace [3H]N-methylscopolamine binding to M1 human recombinant muscarinic receptor in CHO cells at concentration 10 uM. The class given is cell-based.
The target in assay [7] is T3, Muscarinic acetylcholine receptor M2 (Homo sapiens). Description: Ability to displace [3H]N-methylscopolamine binding to M2 human recombinant muscarinic receptor in CHO cells at concentration 1 uM. In kind it is cell-based.
In assay [8] the target is Neuronal acetylcholine receptor (Rattus norvegicus) (UniProt P04757+P09483+P12389+P12390+P12392+P43144+Q9JLB5+P12391+P43143+P20420+Q05941). As to the kind of experiment: Ability to displace [3H]cytisine binding to nicotinic receptor in synaptic membrane fractions from rat cerebral cortices at a concentration of 10 uM. The class given is cell membranes.

Sequence of Muscarinic acetylcholine receptor M3 (Homo sapiens) (P20309 whole entry, looked up): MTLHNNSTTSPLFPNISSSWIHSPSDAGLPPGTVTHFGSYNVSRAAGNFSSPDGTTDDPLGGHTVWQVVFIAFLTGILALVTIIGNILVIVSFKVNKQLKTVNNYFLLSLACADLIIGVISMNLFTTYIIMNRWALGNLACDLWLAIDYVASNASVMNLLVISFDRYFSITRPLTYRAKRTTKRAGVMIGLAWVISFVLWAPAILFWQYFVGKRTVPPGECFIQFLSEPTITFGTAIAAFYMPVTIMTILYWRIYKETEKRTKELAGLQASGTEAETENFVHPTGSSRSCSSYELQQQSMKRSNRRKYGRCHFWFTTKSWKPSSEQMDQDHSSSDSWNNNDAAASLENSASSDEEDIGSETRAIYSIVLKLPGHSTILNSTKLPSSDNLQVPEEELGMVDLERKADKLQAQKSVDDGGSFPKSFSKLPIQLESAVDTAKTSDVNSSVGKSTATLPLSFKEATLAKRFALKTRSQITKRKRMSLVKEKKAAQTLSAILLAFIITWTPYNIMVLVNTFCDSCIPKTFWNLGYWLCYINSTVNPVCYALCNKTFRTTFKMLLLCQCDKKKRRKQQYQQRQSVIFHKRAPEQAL

With `COc1ccc(COc2ccc(-c3cc(/C=C4/CN5CCC4CC5)on3)cc2)cc1`, the inhibition (as a rule, the drop in the measured response relative to a control, in per cent) in assay [1] was found to be 89%; in assay [3] it was 22%; in assay [4] it was 83%; in assay [5] it was 52%; in assay [6] it was 93%; in assay [7], 26%. In addition, the inhibition in assay [8] came to 0%. For the same compound, the IC50 (usually the midpoint of a concentration-inhibition curve) in assay [2] was 250 nM.

As to `COc1ccc(-c2cc(/C=C3/CN4CCC3CC4)on2)cc1OC`, the inhibition in assay [1] stood at 28%; in assay [3], 6%; in assay [4], 71%; in assay [5] it was 46%; in assay [6], 81%; in assay [7] it was 30%. In addition, in assay [8], the inhibition turned out to be 90%.

On to `COc1ccc(-c2cc(/C=C3\CN4CCC3CC4)on2)cc1`, for which the inhibition in assay [1] was 0%; in assay [3], 3%; in assay [4], 19%; in assay [5] it was 18%; in assay [6], 21%; in assay [7], 10%. In assay [8], the inhibition worked out at 25%.

Turning to `COc1ccc(COc2ccc(-c3cc(/C=C4\CN5CCC4C5)on3)cc2OCc2ccc(OC)cc2)cc1` (stereo not given), the inhibition in assay [1] was 87%; in assay [3], 88%; in assay [4] it was 95%; in assay [5], 98%; in assay [6] it was 100%; in assay [7] it was 77%. The compound further yielded an inhibition in assay [8] of 0%. The IC50 in assay [2] is 114 nM.

Turning to `C(=C1\CN2CCC1CC2)/c1cc(-c2ccccc2)no1`, the inhibition in assay [1] was found to be 7%; in assay [3], 12%; in assay [4], 38%; in assay [5] it was 48%; in assay [6], 51%; in assay [7] it was 0%. In addition, the inhibition in assay [8] was 48%.

Regarding `Oc1ccc(-c2cc(/C=C3\CN4CCC3C4)on2)cc1O` (stereo not given), the inhibition in assay [1], in assay [3], in assay [4], in assay [5], in assay [6] and in assay [7] was 0% throughout.

As to `COc1ccc(COc2ccc(-c3cc(/C=C4/CN5CCC4CC5)on3)cc2OCc2ccc(OC)cc2)cc1`, the inhibition in assay [1] is 85%; in assay [3], 44%; in assay [4], 89%; in assay [5], 94%; in assay [6], 100%; in assay [7], 27%. The compound further displayed an inhibition in assay [8] of 0%. Also, in assay [2], the 50% inhibitory concentration (IC50) was 247 nM.

As for `Oc1ccc(-c2cc(/C=C3\CN4CCC3C4)on2)cc1` (stereo not given), the inhibition in assay [1] was determined as 0%; in assay [3] it was 10%; in assay [4], 10%; in assay [5] it was 20%; in assay [6], 0%; in assay [7], 1%. In addition, the inhibition in assay [8] came to 36%.

In the case of `Fc1ccc(-c2cc(/C=C3\CN4CCC3CC4)on2)cc1`, the inhibition in assay [1] was 0%; in assay [3], 0%; in assay [4], 22%; in assay [5] it was 10%; in assay [6] it was 0%; in assay [7], 13%. Besides, in assay [8], the inhibition came out at 19%.

Consider `Cc1ccc(-c2cc(/C=C3/CN4CCC3CC4)on2)cc1`, for which the inhibition in assay [1] is 7%; in assay [3], 3%; in assay [4], 14%; in assay [5], 15%; in assay [6], 7%; in assay [7] it was 2%. In assay [8], the inhibition stood at 70%.

With `COc1ccc(-c2cc(/C=C3/CN4CCC3CC4)on2)cc1`, the inhibition in assay [1] is 23%; in assay [3], 14%; in assay [4] it was 63%; in assay [5] it was 63%; in assay [6], 79%; in assay [7] it was 16%. Further, in assay [8], the inhibition is 68%.

`Oc1ccc(-c2cc(/C=C3/CN4CCC3C4)on2)cc1` (stereo not given): the inhibition came to 0% in assay [1]; 0% in assay [3]; 3% in assay [4]; 11% in assay [5]; 26% in assay [6]; 6% in assay [7]. Further, the inhibition in assay [8] was determined as 81%.

As to `COc1ccc(COc2ccc(-c3cc(/C=C4\CN5CCC4CC5)on3)cc2)cc1`, the inhibition turned out to be 77% in assay [1]; 31% in assay [3]; 46% in assay [4]; 37% in assay [5]; 64% in assay [6]; 55% in assay [7]. The compound also returned an inhibition in assay [8] of 0%. Moreover, in assay [2], the IC50 was 809 nM.

For `COc1ccc(COc2ccc(-c3cc(/C=C4/CN5CCC4C5)on3)cc2)cc1` (stereo not given), the inhibition was determined as 39% in assay [1], 66% in assay [6] and 0% in assay [8].

Take `CC(C)(C)OC(=O)Nc1ccc(-c2cc(/C=C3/CN4CCC3C4)on2)cc1` (stereo not given): the inhibition in assay [1] amounted to 0%; in assay [3], 26%; in assay [4] it was 23%; in assay [5], 35%; in assay [6] it was 58%; in assay [7] it was 3%. Further, the inhibition in assay [8] was determined as 74%.

As to `Fc1ccc(-c2cc(/C=C3/CN4CCC3CC4)on2)cc1`, the inhibition stood at 0% in assay [1], 6% in assay [6] and 19% in assay [8].

With `C(=C1/CN2CCC1CC2)/c1cc(-c2ccccc2)no1`, the inhibition was 0% in assay [1]; 5% in assay [3]; 26% in assay [4]; 17% in assay [5]; 13% in assay [6]; 3% in assay [7].

Regarding `Oc1ccc(-c2cc(/C=C3\CN4CCC3CC4)on2)cc1`, the inhibition in assay [1] was determined as 0%; in assay [3] it was 0%; in assay [4], 7%; in assay [5], 0%; in assay [6], 2%; in assay [7], 0%. This compound showed an inhibition in assay [8] of 72%.

For the compound `Cc1ccc(-c2cc(/C=C3\CN4CCC3CC4)on2)cc1`, the inhibition came out at 0% in assay [1]; 0% in assay [3]; 13% in assay [4]; 0% in assay [5]; 0% in assay [6]; 0% in assay [7]. The same compound displayed an inhibition in assay [8] of 26%.

As for `Oc1ccc(-c2cc(/C=C3/CN4CCC3C4)on2)cc1O` (stereo not given), the inhibition in assay [1] was 0%; in assay [3], 0%; in assay [4] it was 9%; in assay [5], 0%; in assay [6], 16%; in assay [7] it was 6%. Moreover, in assay [8], the inhibition stood at 64%.

As to `COc1ccc(-c2cc(/C=C3\CN4CCC3CC4)on2)cc1OC`, the inhibition in assay [1] came out at 3%; in assay [3] it was 0%; in assay [4] it was 22%; in assay [5], 7%; in assay [6], 22%; in assay [7], 14%. In assay [8], this compound yielded an inhibition of 58%.

Turning to `CC(C)(C)OC(=O)Nc1ccc(-c2cc(/C=C3\CN4CCC3C4)on2)cc1` (stereo not given), the inhibition in assay [1] was determined as 3%; in assay [3] it was 0%; in assay [4], 53%; in assay [5], 53%; in assay [6], 53%; in assay [7], 10%. This compound also came in with an inhibition in assay [8] of 75%.

Regarding `Nc1ccc(-c2cc(/C=C3/CN4CCC3C4)on2)cc1` (stereo not given), the inhibition in assay [1] was 7%; in assay [3], 0%; in assay [4], 4%; in assay [5], 10%; in assay [6], 44%; in assay [7], 1%. Also, the inhibition in assay [8] is 49%.
